Key:
[1] = tested on: Tyrosinhydroxylase-immunoreaktive Neuronen (TH-IR); experiment: Primary neuron cell culture: number and morphology of TH-IR neurons after 24 h; assay type: cell-based; settings: for Zahl der TH-IR Zellen/ Kulturschale: added on culture day 9, mean ± S.D.
From the text: (§1) In der Zellkultur zeigen 1-Trichlormethyl-β-carboline neurotoxische Eigenschaften, die mit denen von MPP^+ bzw. MPTP, den bisher bestuntersuchten dopaminergen Neurotoxinen, vergleichbar sind. Das neurotoxische Potential der chlorierten β-Carboline wurde daher mit Methoden untersucht, die sich beim Studium der Wirkung von MPTP und seiner Analoga bewährt haben (Koutsilieri et al., 1993; Michel et al., 1990; Sanchez-Ramos et al., 1988) Deutliche degenerative Veränderungen sind in vitro im Akutversuch bei einer Einwirkungszeit von 24 Stunden ab einer Konzentration von 10 - 100 µM feststellbar. Die Substanzen führen zum Zelltod dopaminerger Primärzellen aus dem Mesencephalon - Zellen, die den bei Morbus Parkinson betroffenen Neuronen des Menschen entsprechen. Dem Zelltod dieser immunhistochemisch eindeutig charakterisierten Neuronen (Antikörper auf Tyrosinhydroxylase) gehen morphologische Veränderungen der Zellen voraus. Dabei nimmt die Gesamt-Zelloberfläche ab, die Dendriten und Axone, (zuerst die sekundären und dann die primären Zellfortsätze) gehen verloren. Diese histologischen Befunde (vgl. auch Tabelle 2) wurden durch bildgebende Verfahren erhärtet und quantifiziert. Die 1-Trichlormethyl-β-carboline zeigen auch toxische Eigenschaften in Gliazellkulturen, wie durch histologische Befunde nachgewiesen werden konnte. Für die Gruppe der 1-Trichlormethyl-β-carboline läßt sich eine Beeinflussung der synaptischen Transmitterkonzentration erwarten, wie an Versuchen mit der Grundstruktur TaClo nachgewiesen werden konnte, deren Zusatz konzentrationsabhängig (IC50 50 µM) zu einer Freisetzung von Dopamin aus den Zellkulturen führt. Dies wurde durch Dopaminbestimmung in den Kulturen mit Hilfe der Hochdruckflüssigkeitschromatographie und elektrochemischer Detektion nachgewiesen. Der Einsatz von ^3H-markiertem Dopamin für Aufnahmestudien weist eine Interaktion der 1-Trichlormethyl-β-carboline mit den Dopaminaufnahmestellen in Zellkulturen nach, die eine wichtige Voraussetzung für die Aufnahme dieser Substanzen in das dopaminerge Neuron und die Entfaltung der neurotoxischen Wirkung darstellen (IC50 für TaClo 100 µM) (vgl. Tabelle 2).

[2] = tested on: Dopaminstoffwechsel im Striatum; experiment: In vivo differential pulse voltammetry of the DOPAC signal in the striatum after unilateral intranigral injection; parameters: species or system Ratte; settings: for DOPAC-Signal im ipsilateralen Striatum: 10 µg in 2 µl intranigral, before L-DOPA
From the text: Die 1-Trichlormethyl-β-carboline TaClo und N-Me-TaClo wurden im Vergleich zu den bekannten Neurotoxinen MPTP und MPP^+, wie folgt, auf ihre neurotoxische Wirkung überprüft. Die zu untersuchenden Substanzen (TaClo, N-Me-TaClo, DDH-TaFlu, TaBro, MPTP und MPP^+) wurden unter Narkose mit einer Mikroglaskapillare stereotaktisch nach Koordinaten (A: 4,0 mm; L: 1,9 mm; V: 2,0 mm; ab Interaurallinie) von Paxinos und Watson (1982) unilateral in die rechte Substantia nigra pars compacta der Ratte (Han-Wistar, Zentralinstitut für Versuchstierzucht, Hannover, 250-300 g) injiziert. Appliziert wurde ein Volumen von 2 µl über einen Zeitraum von 15 Minuten.
Im Striatum, dem Projektionsareal der nigralen dopaminergen Neurone, wurde 1 und/oder 3 Wochen nach Applikation der Substanzen der Transmitterstoffwechsel untersucht. Die Untersuchung des Dopaminstoffwechsels wurde dabei in beiden Striata, dem linken Striatum, Projektionsgebiet der unbehandelten linken Substantia nigra, und dem rechten Striatum, Projektionsgebiet der behandelten rechten Substantia nigra, durchgeführt. Die Messung des Dopaminstoffwechsels erfolgte mit Hilfe der in vivo differentiellen Pulsvoltametrie (DPV) mit Mikrokohlefaserelektroden, wie sie 1980 von Gonon beschrieben wurde (Gonon et al., 1980). Dabei werden die extrazellulären Spiegel an 3,4-Dihydroxyphenylessigsäure (DOPAC) erfaßt, einem Metaboliten des Transmitters Dopamin. Die Messung wurde am narkotisierten Tier durchgeführt. Die stereotaktische Implantation von 2 Elektroden (rechtes und linkes Striatum) erfolgte nach Koordinaten (A: 8,5 mm; L: ± 3,5 mm; V: 4,5 mm; ab Interaurallinie) von Paxinos und Watson (Paxinos und Watson, 1982). Die voltametrischen Messungen wurden im Abstand von 8 Minuten durchgeführt. 40 Minuten nach Beginn der Messungen applizierte man den Tieren L-DOPA (100 mg/kg i.p.), um die Restitutionsfähigkeit des Dopaminstoffwechsels durch dieses Anti-Parkinsonmittel zu überprüfen.

[3] = tested on: dopaminerge Primärzellen aus dem Mesencephalon; experiment: Dopamine content / dopamine release in the cell cultures (HPLC with electrochemical detection); assay type: cell-based; settings: for Dopamingehalt: 24 h, mean ± S.D.
From the text: as §1, with “Der Einsatz von ^3H-markiertem Dopamin für Aufnahmestudien weist eine Interaktion der 1-Trichlormethyl-β-carboline mit den Dopaminaufnahmestellen in Zellkulturen nach, die eine wichtige Voraussetzung für die Aufnahme dieser Substanzen in das dopaminerge Neuron und die Entfaltung der neurotoxischen Wirkung darstellen (IC50 für TaClo 100 µM) (vgl. Tabelle 2).” left out

[4] = biological target: Dopaminaufnahmestellen (Mus musculus, UniProt Q61327); experiment: 3H-dopamine uptake in cell cultures; assay type: cell-based; settings: 24 h, mean ± S.D.
Chain of Dopaminaufnahmestellen (Q61327 whole entry): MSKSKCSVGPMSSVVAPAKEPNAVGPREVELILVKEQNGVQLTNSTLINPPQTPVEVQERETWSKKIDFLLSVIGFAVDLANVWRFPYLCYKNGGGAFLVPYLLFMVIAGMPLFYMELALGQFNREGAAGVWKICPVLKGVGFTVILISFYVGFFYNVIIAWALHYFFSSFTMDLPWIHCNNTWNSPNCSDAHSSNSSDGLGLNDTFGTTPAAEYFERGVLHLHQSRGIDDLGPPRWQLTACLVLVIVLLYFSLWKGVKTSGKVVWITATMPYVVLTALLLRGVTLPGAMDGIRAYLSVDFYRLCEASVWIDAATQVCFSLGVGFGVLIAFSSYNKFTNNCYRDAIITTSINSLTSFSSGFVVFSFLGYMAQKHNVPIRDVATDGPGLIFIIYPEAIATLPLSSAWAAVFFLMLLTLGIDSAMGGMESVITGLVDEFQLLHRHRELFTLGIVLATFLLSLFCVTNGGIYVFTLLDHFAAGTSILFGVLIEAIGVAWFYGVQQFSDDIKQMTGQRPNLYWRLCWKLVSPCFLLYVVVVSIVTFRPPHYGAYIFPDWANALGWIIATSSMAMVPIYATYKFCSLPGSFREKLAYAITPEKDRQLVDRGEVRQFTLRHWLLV
From the text: as §1, with “Der Einsatz von ^3H-markiertem Dopamin für Aufnahmestudien weist eine Interaktion der 1-Trichlormethyl-β-carboline mit den Dopaminaufnahmestellen in Zellkulturen nach, die eine wichtige Voraussetzung für die Aufnahme dieser Substanzen in das dopaminerge Neuron und die Entfaltung der neurotoxischen Wirkung darstellen (IC50 für TaClo 100 µM) (vgl. Tabelle 2).” left out

[5] = tested on: dopaminerge Rezeptoren; experiment: Apomorphine test (Ungerstedt): locomotor activity after subchronic TaClo i.p.; assay type: in vivo, Ratte; settings: TaClo (Hydrochlorid) 0.2 mg/kg i.p. for four weeks, then apomorphine s.c.
Procedure: Eine durch Neurotoxine verursachte Denervation des postsynaptischen Rezeptors im dopaminergen System führt zu einer Rezeptorüberempfindlichkeit. Dadurch wird die Reaktion gegenüber verabreichten DA-Agonisten (z.B. Apomorphin) größer. Zur Überprüfung einer z.B. TaClo-bedingten Überempfindlichkeit dopaminerger Rezeptoren wird der Apomorphin-Test nach Ungerstedt (Ungerstedt et al., 1971) benutzt. Dieser läßt nach s.c. Injektion von 0.4 oder 2 mg/kg Apomorphin bei einseitiger Läsion des dopaminergen Systems im Versuchstier in den für die Entstehung des Morbus Parkinson ausschlaggebenden Basalganglien contralaterale Drehungen erkennen und nach mehr oder weniger beidseitiger Schädigung dopaminerger Strukturen bei geringem Schädigungsgrad vermehrte, bei hohem Schädigungsgrad verminderte Lokomotion im Vergleich zum Kontrollkollektiv sichtbar werden.
Die Verhaltensbeobachtungen fanden während und nach einstündiger Adaption in Beobachtungskäfigen statt. Die Aufzeichnung einzelner spezifischer Parameter wie gelaufene Wegstrecke [DT], Zeit ambulatorischer Bewegungen [AT], Anzahl stereotyper Bewegungen [BMS] und Zeiten stereotyper Bewegungen erfolgte automatisch. […]

[6] = tested on: Substantia nigra pars compacta; experiment: Histology of the substantia nigra pars compacta after unilateral intranigral injection (neuron count, tyrosine hydroxylase staining); assay type: in vivo, Ratte
From the text: Die ersten Untersuchungen von drei mit TaClo behandelten Ratten mit quantitativer Auswertung der Substantia nigra pars compacta zeigen, daß TaClo, in einer Konzentration von 0.03 µmol einseitig in die Substantia nigra injiziert, bereits nach einer Woche zu einer eindeutigen Reduktion der Neuronenzahl von 12% auf der läsionierten Seite führt. 6-OHDA, in einer annähernd doppelt so hohen Konzentration von 0.05 µmol injiziert, bewirkt einen 51% Abfall der Neuronenzahl.
Nach Anfärbung der Tyrosinhydroxylase mittels Antikörpern zur Darstellung dopaminerger Neurone zeichnen sich pathologische Veränderungen ab, die nach Behandlung mit TaClo auf der läsionierten Seite zu 3 - 6% nekrotischem Gewebsanteil am Gesamtvolumen führen. Bei 6-OHDA beträgt dieser Anteil 25%.

ClC(Cl)(Cl)C1NCCc2c1[nH]c1ccccc21 (racemic) [TaClo]
Zahl der TH-IR Zellen/ Kulturschale ([1]; TaClo 10 µM): 172 ± 69
Länge der Fortsätze ([1]; TaClo 10 µM, mean ± S.D.): 80 ± 20 µm
Zahl der primären Fortsätze ([1]; TaClo 10 µM, mean ± S.D.): 3.1 ± 1.1
Zahl der sekundären Fortsätze ([1]; TaClo 10 µM, mean ± S.D.): 2.6 ± 1.6
Zellfläche ([1]; TaClo 10 µM, mean ± S.D.): 180 ± 49 µm^2
Zahl der TH-IR Zellen/ Kulturschale ([1]; TaClo 25 µM): 164 ± 67
Länge der Fortsätze ([1]; TaClo 25 µM, mean ± S.D.): 70 ± 20 µm
Zahl der primären Fortsätze ([1]; TaClo 25 µM, mean ± S.D.): 2.9 ± 1.0
Zellfläche ([1]; TaClo 25 µM, mean ± S.D.): 192 ± 47 µm^2
Zahl der TH-IR Zellen/ Kulturschale ([1]; TaClo 50 µM): 128 ± 47
Länge der Fortsätze ([1]; TaClo 50 µM, mean ± S.D.): 70 ± 30 µm
Zahl der primären Fortsätze ([1]; TaClo 50 µM, mean ± S.D.): 2.6 ± 1.3
Zellfläche ([1]; TaClo 50 µM, mean ± S.D.): 159 ± 18 µm^2
Zellfläche ([1]; TaClo 100 µM, mean ± S.D.): 185 ± 43 µm^2
DOPAC-Signal im ipsilateralen Striatum ([2]; 1 week): signifikant geringere DOPAC-Konzentration
DOPAC-Signal im ipsilateralen Striatum ([2]; 3 weeks): signifikant geringere DOPAC-Konzentration
Dopamingehalt ([3]; TaClo 10 µM): 0.7 ± 0.2 pmoles/ Kulturschale
Dopamingehalt ([3]; TaClo 25 µM): 0.6 ± 0.2 pmoles/ Kulturschale
IC50 ([3]; concentration dependent, dopamine determined by HPLC with electrochemical detection, read-out: IC50 Freisetzung von Dopamin aus den Zellkulturen): 50 µM
^3H-DA uptake ([4]; TaClo 10 µM): 0.05 ± 0.01 pmoles/ Kulturschale
^3H-DA uptake ([4]; TaClo 25 µM): 0.05 ± 0.01 pmoles/ Kulturschale
^3H-DA uptake ([4]; TaClo 50 µM): 0.05 ± 0.01 pmoles/ Kulturschale
lokomotorische Aktivität nach Apomorphin [5]: stieg nach der kleineren Dosierung signifikant an
Reduktion der Neuronenzahl auf der läsionierten Seite ([6]; 0.03 µmol injected unilaterally into the substantia nigra, after one week, three rats): 12%
nekrotischer Gewebsanteil am Gesamtvolumen auf der läsionierten Seite ([6]; TaClo treatment (0.03 µmol), tyrosine hydroxylase antibody staining): 3 - 6%

NCCc1cc(O)c(O)cc1O [6-OHDA, 6-hydroxydopamine, reference compound]
Abfall der Neuronenzahl ([6]; 0.05 µmol injected): 51%
nekrotischer Gewebsanteil am Gesamtvolumen ([6]; 6-OHDA (0.05 µmol), tyrosine hydroxylase antibody staining): 25%

FC(F)(F)C1=NCCc2c1[nH]c1ccccc21 [DDH-TaFlu, 1-Trifluormethyl-3,4-didehydro-β-carbolin]
DOPAC-Signal im ipsilateralen Striatum ([2]; 1 week): stärkere Reduktion des DOPAC-Signals

C[n+]1ccc(-c2ccccc2)cc1 [MPP^+, 1-Methyl-4-Phenylpyridinium, reference compound]
DOPAC-Signal auf der injizierten Seite ([2]; MPP^+ 30 µg in 2 µl intranigral, 1 and 3 weeks): hochsignifikante (p < 0.01) langanhaltende Verringerung des DOPAC-Signals
Restitutionsfähigkeit des dopaminergen Systems durch DOPA ([2]; MPP^+ 30 µg in 2 µl intranigral, 1 week, L-DOPA 100 mg/kg i.p.): mangelnde Restitutionsfähigkeit

CN1CC=C(c2ccccc2)CC1 [MPTP, 1-Methyl-4-phenyl-1,2,3,6-tetrahydropyridin, reference compound]
Kompensation des Neuronenverlusts durch L-DOPA ([2]; MPTP 174 µg in 2 µl intranigral, 1 and 3 weeks, L-DOPA 100 mg/kg i.p.): kompensieren konnte
DOPAC-Wert auf der läsionierten Seite vor L-DOPA ([2]; MPTP 174 µg in 2 µl intranigral, 1 week, intact side about 20%, p < 0.05): ~6%
Erniedrigung des DOPAC-Signals ([2]; MPTP 174 µg in 2 µl intranigral, 3 weeks): statistisch nicht mehr signifikant

CN1CCc2c([nH]c3ccccc23)C1C(Cl)(Cl)Cl (centres unmarked) [N-Me-TaClo]
DOPAC-Signal im ipsilateralen Striatum ([2]; 1 week): signifikant
DOPAC-Signal im ipsilateralen Striatum ([2]; 3 weeks): signifikant

Reference: EP0793496B1, “USE OF HALOGENATED beta-[…] MODEL […] PRODUCE NEURODEGENERATIVE DISORDERS” (priority 1994, dated 1996)
